Data from patent US20150133454A1, “NANOSTRUCTURED MUCOADHESIVE MICROPARTICLES” (SNU R&DB FOUNDATION, priority 2012, published 2015).

Columns and labels:
[1] = test system: Intra ocular pressure (IOP) of the rabbit eye; experiment: Therapeutic effect: decrease in IOP after administration of drug-loaded formulations; type: in vivo; settings: topical, 556.5 μg dorzolamide (25 μl of Trusopt 2%)
Experimental: The formulation of microparticles as prepared in Examples 6-1 and 6-2 was administered to the rabbit eye according to Example 4 and IOP was measured as described in Example 5.
For testing therapeutic effect by BRT, a total of 7 samples were used. […] For testing therapeutic effect by dorzolamide, 25 μl of Trusopt 2% (MSD, USA), PVA tablet (just containing 556.5 μg of dorzolamide 556.5 μg without any microparticles) and four different types of microparticles prepared as described above containing 556.5 μg dorzolamide were used for the test.
Then, a device for measuring IOP called Tonopen as described in Example 5 was used to measure IOP before the administration and 0.5 h˜13 h after the administration to confirm the efficacy of the drug.

[2] = Pharmacokinetic analysis: brimonidine concentration in aqueous humor; type: in vivo; settings: brimonidine in rabbit aqueous humor after topical administration
Experimental: Seven different formulations loaded with brimonidine prepared as described in Example 6-1 were topically administered to the rabbit eye and pharmacokinetics of the drug administered was examined as described below from the aqueous humor taken at a specified time in FIG. 12 after the administration. Specifically, the rabbit was generally anesthetized as described in Example 4 at the specified time after the administration and 50 μl of Aqueous humor (AH) was obtained from the rabbit eye using 1 ml syringe with 30 gauge needle, which was then used for SPE (Solid Phase Extraction) and HPLC analysis. First, Brimonidine Stock solution was prepared at the final concentration of […] in distilled water, from which 2000, 1000, 800, 600, 400, 200, 100, and 50 μg/ml of Brimonidine solution were prepared. For the calibration, 25 μl of AH from no treatment control, 25 μl Stock Solution (2000, 1000, 800, 600, 400, 200, 100, 50 μg/ml), 50 μl IS (Internal standard, clonidine)(50 μg/ml) and 200 μl of PBS (pH=8) were mixed and centrifuged at 11000×g for 10 min. and 100 μl of the supernatant was used for SPE analysis.
For the sample from the rabbit eye treated with the drug, 50 μl of AH, 50 μl of IS (50 μg/ml) and 200 μl of PBS (pH=8) were mixed and centrifuged at 11000×g for 10 min and 100 μl of the supernatant was used for SPE analysis. SPE (Bond-Eluct-C18, 100 mg, 1 ml, Agilent Technologies) analysis was proceed as below. Before the sample injection, it was washed with MeOH (1 ml) and distilled water (1 ml). Each sample for the calibration and for the analysis was then injected and washed with 1 ml of PBS and eluted with 1 ml of 70% acetonitrile, followed by evaporation for 3 hrs at 40° C. using SpeedVac (Thermo Savant SPD 2010 SpeedVac System, Thermo Electron Corporation, USA). […]
HPLC (Agilent 1260 Series, Agilent Technologies, CA, USA) was used for determining the concentration, in which 50 μl of sample was injected and analyzed under the following condition: Mobile phase=20 mM phosphate buffer (pH=2.5) : MeOH=9:1, flow rate 1 ml/min, 248 nm

Row | Molecule | time for which the formulation was effective in decreasing IOP (Dorzolamide) [1] [h] | AUC [2] [ng·h/mL] | Cmax [2] [ng/mL] | tmax [2] [min]
1 | CCN[C@H]1C[C@H](C)S(=O)(=O)c2sc(S(N)(=O)=O)cc21 [Dorzolamide solution, Dorzolamide] | 5 |  |  | 
2 | Brimonidine Tartrate [BRT solution] |  | 795 | 692 | 40
